Measured values: ChEMBL document CHEMBL1201862, “PubChem BioAssay data set” (2004)
Blank lines part the entries; values can stand above or below the compound they belong to. Active and inactive are the calls of the source.

What was measured:
[1] = target: T1, Calpain-2 catalytic subunit (Sus scrofa, UniProt P43367); assay: pig calpain II inhibitor potency, dose response, biochemical, fluorogenic peptide substrate (AID 1420); assay type: functional
T1 sequence (P43367 whole entry): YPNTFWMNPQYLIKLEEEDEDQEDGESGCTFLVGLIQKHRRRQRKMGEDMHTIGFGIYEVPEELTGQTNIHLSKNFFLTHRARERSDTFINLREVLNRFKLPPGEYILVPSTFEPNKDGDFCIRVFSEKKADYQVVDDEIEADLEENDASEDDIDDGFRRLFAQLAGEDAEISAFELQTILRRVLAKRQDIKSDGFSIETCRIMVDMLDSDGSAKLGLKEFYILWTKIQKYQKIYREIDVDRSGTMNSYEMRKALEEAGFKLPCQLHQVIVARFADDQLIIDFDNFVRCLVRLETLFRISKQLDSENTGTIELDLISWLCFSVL

[2] = NIH-3T3 fibroblast cytotoxicity, dose response, cytotoxicity control, cell-based, fluorescence, Alamar Blue, secondary assay (AID 2327); assay type: functional;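 also: NIH-3T3 mouse fibroblasts cultured with fluconazole at 8 µg/mL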
[3] = tested on: Streptococcus sp. 'group A'; assay: growth inhibition of control SK(-) GAS strain, dose response, counter-screen for streptokinase expression inhibitor project, luminescence, kanamycin, BacTiterGlo, confirmation (AID 1900); assay type: functional, organism-based
[4] = C. albicans growth with fluconazole, confirmation, fluorescence, retest (AID 2467); assay type: functional, cell-based
Streptococcus = assay: Group A Streptococcus viability loss, dose response, counter-screen for streptokinase expression inhibitor project, luminescence, BacTiterGlo (AID 1915); assay type: functional, organism-based;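 also: potency for reduction of bacterial viability or growth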
[5] = target: Heat shock protein HSP 90-alpha (Homo sapiens, UniProt P07900); assay type: functional, organism-based
[6] = HEp-2 cell cytotoxicity, dose response, cytotoxicity control for RSV inhibitor project, HTS (AID 2410); assay type: functional; settings: human respiratory syncytial virus
Leucine aminopeptidase = target: T2, Leucine aminopeptidase (Plasmodium falciparum 3D7, UniProt Q8IL11); assay: P. falciparum M17LAP inhibitors, primary screen, biochemical, fluorogenic H-Leu-NHMec substrate, 1536-well (AID 1619); assay type: functional
T2 sequence (Q8IL11 whole entry): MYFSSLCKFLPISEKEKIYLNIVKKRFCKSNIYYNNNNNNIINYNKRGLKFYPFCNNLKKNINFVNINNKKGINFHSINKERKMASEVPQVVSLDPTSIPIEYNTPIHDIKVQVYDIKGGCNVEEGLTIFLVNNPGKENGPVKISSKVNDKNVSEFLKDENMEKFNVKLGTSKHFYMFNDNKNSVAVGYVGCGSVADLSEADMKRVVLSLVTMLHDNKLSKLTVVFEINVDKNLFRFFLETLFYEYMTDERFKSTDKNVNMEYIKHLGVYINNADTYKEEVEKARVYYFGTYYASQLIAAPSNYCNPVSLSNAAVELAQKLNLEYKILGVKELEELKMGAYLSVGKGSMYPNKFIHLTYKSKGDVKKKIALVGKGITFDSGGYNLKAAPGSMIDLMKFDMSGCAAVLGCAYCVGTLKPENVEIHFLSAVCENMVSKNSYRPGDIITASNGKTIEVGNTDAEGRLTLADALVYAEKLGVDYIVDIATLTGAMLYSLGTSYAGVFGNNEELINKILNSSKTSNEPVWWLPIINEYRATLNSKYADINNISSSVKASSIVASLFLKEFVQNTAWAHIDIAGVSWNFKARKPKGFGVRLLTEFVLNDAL

[7] = target: FAD-linked sulfhydryl oxidase ALR (Homo sapiens, UniProt P55789); assay: inhibitors of human ALR sulfhydryl oxidase, dose response, biochemical, H2O2 detection, luminescence, cherry-pick (AID 493248)
[8] = target: T3, Rac GTPase-activating protein 1 (Homo sapiens, UniProt Q9H0H5); assay: MgcRacGAP GTPase-activating activity inhibitors, confirmation, biochemical, ADP Hunter fluorescence, primary and confirmatory (AID 624330); assay type: functional
T3 sequence (Q9H0H5 whole entry): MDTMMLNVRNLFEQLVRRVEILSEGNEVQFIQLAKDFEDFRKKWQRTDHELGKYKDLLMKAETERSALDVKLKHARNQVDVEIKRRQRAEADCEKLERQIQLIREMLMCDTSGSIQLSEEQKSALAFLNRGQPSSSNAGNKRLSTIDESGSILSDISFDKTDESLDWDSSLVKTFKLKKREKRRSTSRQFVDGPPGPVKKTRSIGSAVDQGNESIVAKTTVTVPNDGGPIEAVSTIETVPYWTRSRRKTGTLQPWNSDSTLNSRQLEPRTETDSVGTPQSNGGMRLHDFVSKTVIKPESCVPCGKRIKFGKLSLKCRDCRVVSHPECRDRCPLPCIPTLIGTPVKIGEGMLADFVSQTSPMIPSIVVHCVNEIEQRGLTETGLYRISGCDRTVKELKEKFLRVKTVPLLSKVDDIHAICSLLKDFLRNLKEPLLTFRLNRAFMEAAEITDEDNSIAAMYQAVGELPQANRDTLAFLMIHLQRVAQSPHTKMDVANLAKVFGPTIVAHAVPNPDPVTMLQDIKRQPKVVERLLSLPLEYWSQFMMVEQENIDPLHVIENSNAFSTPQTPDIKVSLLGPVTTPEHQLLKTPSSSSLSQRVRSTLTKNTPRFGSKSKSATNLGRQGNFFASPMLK

Large T antigen = Large T antigen (Simian virus 40, UniProt P03070); assay type: functional, Betapolyomavirus macacae;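 also: Confirmatory-stage PubChem screen for compounds that inhibit SV40 T antigen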
Large T antigen, sequence (P03070 whole entry): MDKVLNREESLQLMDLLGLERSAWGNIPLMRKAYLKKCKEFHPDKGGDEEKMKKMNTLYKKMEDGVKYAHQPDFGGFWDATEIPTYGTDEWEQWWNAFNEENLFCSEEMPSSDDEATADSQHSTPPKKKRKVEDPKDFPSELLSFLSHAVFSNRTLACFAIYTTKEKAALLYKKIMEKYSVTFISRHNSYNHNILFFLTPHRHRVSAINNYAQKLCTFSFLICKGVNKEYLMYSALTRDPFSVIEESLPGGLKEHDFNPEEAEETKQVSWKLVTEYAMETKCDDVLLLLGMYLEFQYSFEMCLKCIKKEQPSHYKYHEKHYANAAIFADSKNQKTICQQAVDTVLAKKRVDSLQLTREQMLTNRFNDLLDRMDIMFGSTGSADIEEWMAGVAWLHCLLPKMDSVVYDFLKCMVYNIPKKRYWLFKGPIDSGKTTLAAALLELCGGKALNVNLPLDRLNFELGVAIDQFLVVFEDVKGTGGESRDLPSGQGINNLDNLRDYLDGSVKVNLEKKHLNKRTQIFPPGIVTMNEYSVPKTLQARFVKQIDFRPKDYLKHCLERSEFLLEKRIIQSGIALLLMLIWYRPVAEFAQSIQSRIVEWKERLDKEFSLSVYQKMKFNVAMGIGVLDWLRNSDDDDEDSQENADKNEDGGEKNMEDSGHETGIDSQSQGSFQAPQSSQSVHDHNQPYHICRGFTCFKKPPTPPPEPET

FAD-linked sulfhydryl oxidase ALR, sequence (P55789 whole entry): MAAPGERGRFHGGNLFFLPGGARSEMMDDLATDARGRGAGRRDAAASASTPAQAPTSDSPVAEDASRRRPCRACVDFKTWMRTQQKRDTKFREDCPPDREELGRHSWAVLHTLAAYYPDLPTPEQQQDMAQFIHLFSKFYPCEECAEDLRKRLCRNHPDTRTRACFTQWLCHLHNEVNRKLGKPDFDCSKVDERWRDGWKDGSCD

IC50 [1]: 19.6 µM (not active)
Compound: O=C(COC(=O)CCc1ccccc1)NC12CC3CC(CC(C3)C1)C2

Compound: Cc1cccc(C)c1OCC(=O)NNC(=S)NC(=O)C1CC1
EC50 [2]: > 160 µM (inactive)
EC50 [3]: 0.412 µM (active)
EC50 [4]: 1.66 µM (active)
EC50 (Streptococcus): 7.38 µM (active)
AC50 [5]: 1.15 µM (active)

Compound: O=C1CCSc2ccc(Cl)cc2N1Cc1cccc(Cl)c1
IC50 (cells): 42.8 µM (active)
CC50 [6]: 35.5 µM (active)

IC50 [1]: 10.9 µM (not active)
Compound: COC(=O)c1ccc(N2C(=O)C3CC(C)=C(C)CC3C2=O)cc1 (stereo not given)

IC50 (Leucine aminopeptidase): 35 µM (active)
Compound: COc1ccc2sc(N3C(=O)C4CC=C(C)CC4C3=O)nc2c1 (stereo not given)

IC50 (Leucine aminopeptidase): 28.1 µM (active)
Compound: CCOc1ccc(Nc2nc(Cc3nnc(SCC(=O)NCc4ccco4)n3CC)cs2)cc1

Compound: Cc1cc2nc(-c3ccc(NC(=O)C(C)C)cc3)oc2cc1C
IC50 (cells): 39.1 µM (active)

Compound: CCN(c1ccccc1)S(=O)(=O)c1ccc(OC)c(NC(=O)Cc2ccccc2OC)c1
IC50 (cells): 35 µM (active)
CC50 [6]: > 50 µM (active)

AC50 [5]: 3.15 µM (active)
Compound: O=C/C(=N\Nc1ccccc1)C(=O)c1ccc(Cl)cc1

AC50 [7]: 4.03 µM (active)
IC50 [8]: 69.8 µM (active)
IC50 (Leucine aminopeptidase): 34.1 µM (active)
IC50 (Large T antigen): 13 µM (active)
Compound: COc1cc(/C(C)=N/NC(=O)Cc2c(C)n[nH]c2O)ccc1O

IC50 (Leucine aminopeptidase): 16.4 µM (active)
Compound: O=C(O)c1cc(/C=N\O)ccc1OCc1ccccc1
